A short description of this series: Measurement of solubility in chloroform and in dichloromethane (solvent added by 0.1 mL until the whole amount dissolved). The settings on record: for solubility: organic solvent or mixture, thermodynamic from solid. The series is classed as physicochemical. The method, then:
Respective compounds indicated by "6" and "7" were subjected to measurements of solubility in chloroform and in dichloromethane. In the measurements, approximately 3mg of a compound was prepared in advance by a precise weighing. Then, a solvent was added by 0.1mL to the compound and thereafter stirred or subjected to ultrasonic agitation. The solubility (mg/mL) was determined from an amount of the solvent used in dissolving a whole amount of the compound.

Values after ≈ are worked out from the molar mass of the structure shown. Like-named read-outs stand apart in the source and are kept apart here.

As usually defined, the solubility is the dissolved amount per volume that the medium holds.

For `CCCCCCc1cc2c(s1)-c1nc-2nc2[nH]c(nc3nc(nc4[nH]c(n1)c1cc(CCCCCC)sc41)-c1cc(CCCCCC)sc1-3)c1cc(CCCCCC)sc21` [compound 6, Tetra(hexylthieno)porphyrazine], under “solvent chloroform”, the solubility in chloroform amounted to 29000 µg/mL (≈ 33100 µM).

`CCCCCCc1cc2c(s1)C1=NC2=Nc2c3sc(CCCCCC)cc3c3[n]2[Cu][n]2c(c4cc(CCCCCC)sc4c2=NC2=NC(=N3)c3sc(CCCCCC)cc32)=N1` [compound 7, Copper (II) complex]: the solubility in chloroform (solvent chloroform) came to 11000 µg/mL. Where the note is “solvent dichloromethane”, this compound gave a solubility in dichloromethane of 10000 µg/mL. `c1cc2c(s1)-c1nc-2nc2[nH]c(nc3nc(nc4[nH]c(n1)c1ccsc41)-c1ccsc1-3)c1ccsc21` [unsubstituted phthalocyanine derivative, reference compound]: the solubility is less than 20 µg/mL (solvent chloroform, read-out: solubility in chloroform) and less than 20 µg/mL (solvent dichloromethane, read-out: solubility in dichloromethane).

(Values after EP2138545B1, “USE OF PORPHYRAZINE DERIVATIVE AS SEMICONDUCTOR” (Hiroshima University, priority 2007, dated 2008).)
